What was measured:
[1] = system: antibodies in sera from SARS patients (sera 1a, 1b, 2, 6, 37, 62, London, SARS-yellow, SARS-green); type: binding, human; parameters: Binding of serum 6 to linear peptides of protein X1 of SARS-CoV Urbani / Binding of serum 37 to linear peptides of protein X1 of SARS-CoV Urbani / Binding of serum 6 to looped/cyclic peptide (PEPSCAN-ELISA) / Binding of serum 37 to looped/cyclic peptide (PEPSCAN-ELISA) / Binding of serum 37 to looped/cyclic peptides of protein X1 of SARS-CoV Urbani / Binding of serum 6 to linear peptides of protein X2 / Binding of serum 37 to linear peptides of protein X2 / Binding of serum 37 to looped/cyclic peptides of protein X2 of SARS-CoV Urbani / Binding of serum 6 to linear peptides of protein M of SARS-CoV Urbani / Binding of serum 37 to linear peptides of protein M of SARS-CoV Urbani / Binding of serum 6 to looped/cyclic peptides of protein M of SARS-CoV Urbani / Binding of serum 37 to looped/cyclic peptides of protein M of SARS-CoV Urbani / Binding of serum 6 to linear peptides of protein X3 of SARS-CoV Urbani / Binding of serum 37 to linear peptides of protein X3 of SARS-CoV Urbani / Binding of serum 37 to looped/cyclic peptides of protein X3 of SARS-CoV Urbani / Binding of serum 6 to linear peptides of protein X4 of SARS-CoV Urbani / Binding of serum 37 to linear peptides of protein X4 of SARS-CoV Urbani / Binding of serum 37 to looped/cyclic peptides of protein X4 of SARS-CoV Urbani / Binding of serum 6 to linear peptides of protein X5 of SARS-CoV Urbani / Binding of serum 37 to linear peptides of protein X5 of SARS-CoV Urbani / Binding of serum 37 to looped/cyclic peptides of protein X5 of SARS-CoV Urbani / Binding of serum 6 to linear peptides of protein N of SARS-CoV Urbani / Binding of serum 37 to linear peptides of protein N of SARS-CoV Urbani / Binding of serum 6 to linear peptide (PEPSCAN-ELISA) / Binding of serum 1a to looped/cyclic peptides of protein N of SARS-CoV Urbani / Binding of serum 1b to looped/cyclic peptides of protein N of SARS-CoV Urbani / Binding of serum 2 to looped/cyclic peptides of protein N of SARS-CoV Urbani / Binding of serum 6 to looped/cyclic peptides of protein N of SARS-CoV Urbani / Binding of serum 37 to looped/cyclic peptides of protein N of SARS-CoV Urbani / Binding of serum 62 to looped/cyclic peptides of protein N of SARS-CoV Urbani / Binding of serum London to looped/cyclic peptides of protein N of SARS-CoV Urbani / Binding of serum SARS-green to looped/cyclic peptides of protein N of SARS-CoV Urbani: unit not given here
[2] = system: control sera (pooled serum of ten healthy LUMC hospital workers; commercial negative donor pooled serum from the Dutch bloodbank); type: binding, human; parameters: Binding of Control serum LUMC to linear peptides / Binding of Control serum Blood-bank to linear peptides / Binding of Control serum LUMC to looped peptides / Binding of Control Serum Blood-Bank to Looped peptides / Binding of Control serum LUMC to linear peptides of the protein M of SARS-CoV Urbani / Binding of Control serum Blood-bank to linear peptides of the protein M of SARS-CoV Urbani / Binding of Control serum LUMC to looped peptides of the protein M of SARS-CoV Urbani / Binding of Control Serum Blood-Bank to Looped peptides of the protein M of SARS-CoV Urbani: unit not given here
[3] = system: rabbit serum obtained by immunizing a rabbit with the SARS-CoV strain Frankfurt 1; type: binding; parameters: Binding of a rabbit serum to linear peptides / Binding of a rabbit serum to looped peptides / Rabbit serum linear peptides / Rabbit serum looped peptides / Binding of a rabbit serum to linear peptides of protein N of SARS-CoV Urbani (Rabbit serum linear peptides) / Binding of a rabbit serum to looped/cyclic peptides of protein N of SARS-CoV Urbani (Rabbit serum looped peptides): unit not given here

| Sequence | Binding of Control Serum Blood-Bank to Looped peptides [2] | Binding of Control serum Blood-bank to linear peptides [2] | Binding of Control serum LUMC to linear peptides [2] | Binding of Control serum LUMC to looped peptides [2] | Binding of a rabbit serum to linear peptides [3] | Binding of a rabbit serum to looped peptides [3] | Binding of serum 1a to linear peptides of protein X1 of SARS-CoV Urbani [1] | Binding of serum 1b to linear peptides of protein X1 of SARS-CoV Urbani [1] | Binding of serum 2 to linear peptides of protein X1 of SARS-CoV Urbani [1] | Binding of serum 6 to linear peptides of protein X1 of SARS-CoV Urbani [1] | Binding of serum 37 to linear peptides of protein X1 of SARS-CoV Urbani [1] | Binding of serum 62 to linear peptides of protein X1 of SARS-CoV Urbani [1] | Binding of serum London to linear peptides of protein X1 of SARS-CoV Urbani [1] | Binding of serum SARS-green to linear peptides of protein X1 of SARS-CoV Urbani [1] | Binding of serum SARS-yellow to linear peptides of protein X1 of SARS-CoV Urbani [1] | other results |
| --- | --- | --- | --- | --- | --- | --- | --- | --- | --- | --- | --- | --- | --- | --- | --- | --- |
| HITVSQIQLSLLKVT | 0.6 | 0.6 | 0.8 | 0.5 | 0.7 | 0.4 | – | – | – | – | – | – | – | – | – | Binding of serum 1a to linear peptides of protein X2 [1]: 0.6; Binding of serum 1a to looped/cyclic peptides of protein X2 of SARS-CoV Urbani [1]: 0.5; Binding of serum 1b to linear peptides of protein X2 [1]: 0.5; Binding of serum 1b to looped/cyclic peptides of protein X2 of SARS-CoV Urbani [1]: 0.5; Binding of serum 2 to linear peptides of protein X2 [1]: 0.5; Binding of serum 2 to looped/cyclic peptides of protein X2 of SARS-CoV Urbani [1]: 0.5; Binding of serum 6 to linear peptides of protein X2 [1]: 0.5; Binding of serum 6 to looped/cyclic peptides of protein X2 of SARS-CoV Urbani [1]: 0.4; Binding of serum 37 to linear peptides of protein X2 [1]: 0.7; Binding of serum 37 to looped/cyclic peptides of protein X2 of SARS-CoV Urbani [1]: 0.5; Binding of serum 62 to linear peptides of protein X2 [1]: 0.5; Binding of serum 62 to looped/cyclic peptides of protein X2 of SARS-CoV Urbani [1]: 0.6; Binding of serum London to linear peptides of protein X2 [1]: 0.4; Binding of serum London to looped/cyclic peptides of protein X2 of SARS-CoV Urbani [1]: 0.8; Binding of serum SARS-green to linear peptides of protein X2 [1]: 0.2; Binding of serum SARS-green to looped/cyclic peptides of protein X2 of SARS-CoV Urbani [1]: 0.4; Binding of serum SARS-yellow to linear peptides of protein X2 [1]: 0.8; Binding of serum SARS-yellow to looped/cyclic peptides of protein X2 of SARS-CoV Urbani [1]: 0.6 |
| TEGDGISTPKLKEDY | 0.5 | 0.2 | 0.2 | 0.5 | 0.1 | 0.5 | 0.5 | 0.3 | 0.4 | 0.2 | 0.4 | 0.3 | 0.2 | 0.1 | 0.0 | Binding of serum 1a to looped/cyclic peptides of protein X1 of SARS-CoV Urbani [1]: 0.5; Binding of serum 1b to looped/cyclic peptides of protein X1 of SARS-CoV Urbani [1]: 0.4; Binding of serum 2 to looped/cyclic peptides of protein X1 of SARS-CoV Urbani [1]: 0.5; Binding of serum 6 to looped/cyclic peptides of protein X1 of SARS-CoV Urbani [1]: 0.4; Binding of serum 37 to looped/cyclic peptides of protein X1 of SARS-CoV Urbani [1]: 0.4; Binding of serum 62 to looped/cyclic peptides of protein X1 of SARS-CoV Urbani [1]: 0.4; Binding of serum London to looped/cyclic peptides of protein X1 of SARS-CoV Urbani [1]: 0.2; Binding of serum SARS-green to looped/cyclic peptides of protein X1 of SARS-CoV Urbani [1]: 0.3; Binding of serum SARS-yellow to looped/cyclic peptides of protein X1 of SARS-CoV Urbani [1]: 0.3 |
| FLAVFQSATKIIALN | 0.6 | 0.6 | 0.6 | 0.7 | 0.6 | 0.6 | 0.6 | 0.4 | 0.5 | 0.4 | 0.6 | 0.6 | 0.2 | 0.3 | 0.4 | Binding of serum 1a to looped/cyclic peptide (PEPSCAN-ELISA) [1]: 0.6; Binding of serum 1b to looped/cyclic peptide (PEPSCAN-ELISA) [1]: 0.4; Binding of serum 2 to looped/cyclic peptide (PEPSCAN-ELISA) [1]: 0.5; Binding of serum 6 to looped/cyclic peptide (PEPSCAN-ELISA) [1]: 1.0; Binding of serum 37 to looped/cyclic peptide (PEPSCAN-ELISA) [1]: 0.5; Binding of serum 62 to looped/cyclic peptide (PEPSCAN-ELISA) [1]: 0.6; Binding of serum London to looped/cyclic peptide (PEPSCAN-ELISA) [1]: 1.4; Binding of serum SARS-green to looped/cyclic peptide (PEPSCAN-ELISA) [1]: 0.3; Binding of serum SARS-yellow to looped/cyclic peptide (PEPSCAN-ELISA) [1]: 0.4 |
